From patent US20120190707A1, “SELECTIVE INHIBITORS OF AKT AND METHODS OF USING SAME” (priority 2008, published 2012)

Legend:
[1] = mouse, in vivo
[2] = tested on: UACC903 melanoma cells; assay: CellTiter Blue Cell Viability Assay in UACC903 cells; format: cell-based, human; conditions: 24 h post-treatment
Experimental: UACC903 melanoma cells were treated with vehicle (0 μM) or the indicated concentrations of BI-69A11, BI-83G10, or BI-98C11. 24 h post-treatment, cell viability was determined using the CellTiter Blue Cell Viability Assay (Promega, Madison Wis.) following the manufacturer's directions.

[3] = target: Akt1 (Homo sapiens, UniProt P31749); assay: Akt1 inhibition assay using GSK-3 as a substrate (immuno-blotting with anti-phospho-GSK-3α/β); format: biochemical
Experimental: Here the top 4000 compounds out of 50000 docked compounds were selected using FlexX and Drugscore (BioSolvIT). The top 4000 docked structures were further evaluated and ranked according to Goldscore and Chemscore functions (CSCORE). A list of common 200 compounds was then selected among ranked top 700 compounds according to both scoring functions (FIG. 1B). […] The remaining 100 compounds were experimentally tested up to 30 μM against Akt1. The inhibitory activity was evaluated for the selected compounds by using Z'-LYTE™ kit assay provided by Invitrogen Corporation (19). […] Corning® 384-well low volume plates (20 μl) were used. The fluorescent-enzymatic assay has been performed following the protocol provided by Invitrogen Corporation, using a fluorescent plate reader (Victor2, Perkin-Elmer). […] C) Lineweaver-Burk Km and Km(app) evaluation for Akt1. Each measurement was performed in triplicate. […] The Ki and the Km(app) were calculated at fixed inhibitor concentrations, as reported in the text. All constant values were definitely evaluated by fitting the data to the Lineweaver-Burk plot; D) Akt1 inhibition assay using GSK-3 as a substrate. Comparison of compounds 1 and 2 (Table 1) with H89 at 10 μM. E) Dose response for compound 1. […]

[4] = tested on: AKT association with HSP90; assay: AKT association with HSP90, immunoprecipitation from melanoma cells; format: cell-based, human; conditions: 10.micro.M, 4 h
Experimental: FIG. 6 describes the effect of BI-69A11 on phosphorylation and total levels of AKT in UACC 903 (PTEN−) cells. (A) UACC903 and the modified clone 29-1 (PTEN+) cells were exposed to 10 micro.M BI-69A11 and 50 micro.M LY294002 (a PI3K inhibitor) and the levels of pAKT473 and total AKT determined by western analysis. […] (SF=Serum Free). (B) BI-69A11 inhibits PRAS40 phosphorylation. UACC903 melanoma cells or 29-1 cells (PTEN+) were subjected to treatment with IGF-1 (20 ng/mL) and the level of PRAS40 phosphorylation was assessed. […] The cells were collected, lysed and levels of pPRAS40 and total PRAS40 determined by western analysis. (C) AKT association with HSP90 is inhibited by BI-69A11. Human melanoma cells were treated with BI-69A11 (10.micro.M) or DMSO control for 4 h, followed by protein preparation and immunoprecipitation using antibodies to pan-AKT. MG132 treatment, when used, initiated 1 h prior to treatment and lasted up to the preparation of proteins (total of 5 h). The right panel depicts analysis of total lysates.
Among cellular proteins implicated in the regulation of AKT levels is the cellular chaperone HSP90. […] Thus we assessed whether association of AKT with HSP90 could be affected by BI-69A11. […]

[5] = tested on: JNK; assay: Activity of other protein kinases: JNK; format: biochemical; conditions: 100 micro.M
Description: We recently reported on the direct evaluation of a number of in silico approaches to identify AKT inhibitors (Forino et al., 2005) We achieved experimental validation of selected compounds using both a fluorescence-based enzymatic assay and a substrate phosphorylation assay involving the protein GSK-3 (Forino et al., 2005). Briefly, the virtual docking approach consists of selecting the top 4,000 out of 50,000 docked compounds, using a variety of computational docking approaches, including a consensus score among two different scoring functions (Forino et al., 2005). Of those, 100 compounds were selected based on ranking and favorable docking geometry.

Sequence of Akt1 (P31749 whole entry): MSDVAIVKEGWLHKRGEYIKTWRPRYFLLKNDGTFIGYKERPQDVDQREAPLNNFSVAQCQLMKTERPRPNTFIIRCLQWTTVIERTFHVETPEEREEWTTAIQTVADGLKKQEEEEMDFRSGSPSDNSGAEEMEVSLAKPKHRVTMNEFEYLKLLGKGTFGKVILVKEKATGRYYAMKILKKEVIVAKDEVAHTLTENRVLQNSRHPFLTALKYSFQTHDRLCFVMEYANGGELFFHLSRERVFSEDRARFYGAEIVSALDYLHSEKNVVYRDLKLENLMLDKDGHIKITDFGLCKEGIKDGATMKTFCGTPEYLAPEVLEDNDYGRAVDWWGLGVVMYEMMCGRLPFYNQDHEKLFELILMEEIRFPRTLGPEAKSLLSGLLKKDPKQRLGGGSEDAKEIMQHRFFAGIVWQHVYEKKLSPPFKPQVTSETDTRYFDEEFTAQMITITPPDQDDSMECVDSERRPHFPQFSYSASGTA

O=C(/C=C/c1nc2ccccc2[nH]1)c1c(O)nc2ccc(Cl)cc2c1-c1ccccc1 [Compound 2, (E)-3-(3-(1H-benzo[d]imidazol-2-yl)acryloyl)-6-chloro-4-phenylquinolin-2(1H)-one]
cytokines in the blood, treated vs. control [1]: induction of TNFalpha
toxicity by blood work [1]: lack of toxicity
viability of UACC903 cells [2]: decreased the viability
inhibition of GSK-3 phosphorylation [3]: low micromolar range
AKT association with HSP90 [4]: abolished
effect on JNK activity [5]: did not affect
